Assay results as given in a melting point compilation (Tetko et al.; mined from patent text by program, amines drawn as free bases though some values may be those of a salt).

Row | melting point | Compound
1 | 217 to 219 °C | O=C(Nc1ccc2c(c1)CCC2=O)c1ccc(-c2ccccc2)cc1
2 | 188 to 189 °C | COc1cc2ccccc2[nH]c1=O
3 | 113 to 115 °C | COC(=O)C=Cc1cccc2[nH]ccc12
4 | 22 to 23 °C | C=CCOc1ccc(C(=C)C)cc1
5 | 152 to 154 °C | CC(=O)c1ccc2c(c1)oc(=O)n2N1CCC(c2noc3cc(F)ccc23)CC1
6 | 141 to 143 °C | CC(C)Oc1cc(-n2c(=O)cc(C(F)(F)C(F)(F)F)[nH]c2=O)c(F)cc1Cl
7 | 123 to 125 °C | CSc1sc(C(=O)N2CCN(C)CC2)c2c1C(=O)CC(C)(C)C2
8 | 108 °C | CCSc1nnc(-c2ccccc2)n1Cc1ccc([N+](=O)[O-])cc1
9 | 168 to 169 °C | COC(=O)C[C@H]1[C@H](C(=O)N(C)OC)C(=O)N1C(c1ccccc1)(c1ccccc1)c1ccccc1
10 | 100 °C | Cc1cc(-c2cn(-c3cccc(OCCn4ccnc4)c3)c3ncnc(N)c23)cc(C)c1O
11 | 158 to 160 °C | CCCCNC(=O)Nc1cccc(-c2ccnc3c(C(=O)c4cccs4)cnn23)c1
12 | 122 to 123 °C | CC(C)Cn1nc(OCCCCc2ccc(OC(C)C)cc2Oc2ncc(C(F)(F)F)cc2Cl)cc1CCC(=O)O
13 | 117 °C | CCCC(=O)CS(N)(=O)=O
14 | 202 to 204 °C | CCOC(=O)c1cc(-n2c(=O)[nH]c(C)c(C)c2=O)ccc1Cl
15 | 178 to 181 °C | O=C(c1ccc([N+](=O)[O-])o1)N1CCN(CC(O)COc2cccc3[nH]c4ccccc4c23)CC1 (centres undefined)
16 | 42 to 43 °C | CCCCCCCCCCC[C@@H](O)CC(=O)OC
17 | 90 to 92 °C | C=CCNc1nc(NCC(C)(C)C)c2scc(C)c2n1
18 | 106 to 107 °C | Cc1ccccc1Oc1cccc(CCC(=O)O)c1O
19 | 252 to 254 °C | N#CCCc1c(-c2ccccc2)c(=O)[nH]c2cc(Cl)ccc12
20 | 163 °C | O=C(Oc1ccc(-c2ccc(O)c([N+](=O)[O-])c2)cc1)c1ccccc1
21 | 171 to 175 °C | O=C(c1ccc(-c2ccc(NC(=S)Nc3ccccc3)cc2)o1)N1CCN2CCC1CC2
22 | 291 to 292 °C | Cn1ncc(/C=C/C(=O)Nc2ccc(C(=O)O)cc2)c1-c1ccc(F)cc1
23 | 266 to 267 °C | N#Cc1ccc2cc(CCc3cc4ccc(C#N)cc4o3)oc2c1
24 | 216 °C | CC1(C)Oc2ccc(Br)cc2C(n2ccccc2=O)=C1CN(O)C(N)=O

Row | melting point | Compound
25 | 118 °C | CCCCCS(=O)(=O)NC(=O)/C(=C/c1ccc(OCCOC)cc1Oc1ncc(Cl)cc1Cl)CC
26 | 135 to 136 °C | O=[N+]([O-])c1ccc(N=Nc2ccc(N(CC3CO3)CC3CO3)cc2)cc1 (centres undefined)
27 | 46 to 48 °C | CCCCCCCCCCCCCCC(=O)NCCCN(C)C
28 | 166 to 167 °C | CC1OC(=O)N(c2nc(-c3ccc(C#N)cc3)cs2)C1(C)C (centres undefined)
29 | 230 °C | CCc1nnc(-c2ncc3[nH]c4cccc(OCc5ccccc5)c4c3c2COC)o1
30 | 81 to 82 °C | COC(=O)C1=C(C)NC(C)=C(C(=O)OCOC(=O)C(C)(C)C)C1c1ccccc1 (single isomer, unassigned; (+))
31 | 278 to 279 °C | CN1C(C(=O)Nc2cccc(F)c2)=C(O)c2ccc3ccccc3c2S1(=O)=O
32 | 264 °C | Cn1ncc(C(=O)N2CCC2)c1C(=O)Nc1ccn2nc(-c3cccc(F)n3)nc2c1
33 | 212 to 213 °C | COC(=O)C1=C(C)NC(C)=C(C(=O)OC)N1c1cccc(N)c1
34 | 58 to 60 °C | CCCCCCCN(CCCCCSc1nc(-c2ccccc2)c(-c2ccccc2)[nH]1)c1ncnc2nc[nH]c12
35 | 183 to 186 °C | Cn1cc(-c2cccc(C(F)(F)F)c2)c(=O)c(-c2ccc(F)cc2Cl)c1
36 | 55 to 57 °C | CC(O)COC1CCNCC1 (centres undefined)
37 | 240 to 241 °C | O=C(O)C1=Cc2cc(C#Cc3ccccc3)ccc2OC1C(F)(F)F (centres undefined)
38 | 149 to 151 °C | COC(=O)c1ccc2[nH]c(=O)oc2c1
39 | 172 to 173 °C | NC(=O)NCc1ccc2ccn(C3CCN(CCc4ccc(F)cc4)CC3)c2c1
40 | 108 °C | CCn1cc(CN(C(=O)Nc2c(C)cccc2C)c2ccc(C(C)C)cc2)cn1
41 | 84 to 86 °C | CCCOC(C(=O)O)c1ccc2c(c1)C(C)(C)CCC2(C)C (racemic)
42 | 259 to 260 °C | COc1cc2c(cc1OC)C1NC(=O)CCC1=C2c1ccccc1 (centres undefined)
43 | 257 to 259 °C | CCCCCCCc1ccc(OC(=O)c2ccc3c(c2N)C(=O)c2ccc(C)c([N+](=O)[O-])c2C3=O)cc1
44 | > 230 °C | Cc1cccc(NC(=O)c2ccccc2CN2C(=O)C3(COc4cc5c(cc43)CCO5)c3ccccc32)c1C (centres undefined)
45 | 155 to 156 °C | Cc1cc(-c2csc(-c3cccc(C(=O)O)c3)n2)c(C)s1
46 | 120 °C | CC(=O)N[C@@H](C)COC1CCN(c2nc3ccc(OCC4CC4)cc3o2)CC1
47 | 227 °C | O=C1CC(c2cccc(-n3ccnc3)c2)=Nc2cc(CO)c(C#Cc3ccccc3)cc2N1
48 | 187 to 188 °C | CCOC(=O)COc1ccc2cc(-c3cc4ccccc4s3)ccc2c1Cl

Row | melting point | Compound
49 | 110 to 112 °C | CC1CC(=O)NN=C1c1ccc(NC(=O)C(C)OS(C)(=O)=O)cc1 (centres undefined)
50 | 196 to 200 °C | C=CCc1cc(Cc2cnc(N)nc2N)c2cccnc2c1OCCOC
51 | 129 to 130 °C | O=C(NCc1cc(C(F)(F)F)cc(C(F)(F)F)c1)c1c(-c2ccccc2)c2cccnc2c(=O)n1CCCO
52 | 91 °C | Cc1ccc2oc(Cc3nc4cc(C)ccc4o3)nc2c1
53 | 217 to 219 °C | COc1cc(OC)c2c(=O)cc(C(C)(C)C(N)=O)oc2c1
54 | 199 to 200 °C | CC(C(=O)O)c1ccc(-c2ccc(OCc3nc4ccccc4s3)cc2)cc1 (centres undefined)
55 | 90 to 91 °C | CCCCCCC(C(=O)O)c1cccc(Sc2ccccc2C)c1O (centres undefined)
56 | 114 to 116 °C | Cc1nc(C(=O)NCCO[N+](=O)[O-])c(C)s1
57 | 93 to 95 °C | COc1cc(OC)c([N+](=O)[O-])cc1C(=O)CCCCCl
58 | 142 °C | COC(=O)CCc1cc2c(Cl)c(Cl)ccc2n1S(=O)(=O)c1ccccc1
59 | 141 °C | COC(=O)c1cccc(-c2nnc(-c3ccccc3N)cc2CCCO)c1
60 | 104 to 106 °C | CCCCc1ccc(C#CC(C)N(O)C(N)=O)s1 (centres undefined)
61 | 126 to 128 °C | Cc1ccc(S(=O)C(C(=O)OC(C)(C)C)C(O)c2ccc(Oc3ccccc3)cc2)cc1 (centres undefined)
62 | 63 to 65 °C | CN(Cc1ccc(OC(C)(C)C(=O)O)cc1)c1ccc(Cl)cc1
63 | 118 to 120 °C | COc1ccc2c(c1)CCC1CCN(C)C(=O)C(CC(C)NC(C)C)=C21 (centres undefined)
64 | 153 to 155 °C | C=CCOc1ccc2c(C)cc(=O)oc2c1C(=O)C=Cc1ccc(Cl)cc1
65 | 83 to 87 °C | CSCC(C)(C)N(C(=O)c1c(I)cccc1C(N)=O)c1ccc(Cn2nnn(-c3ccc(C(F)(F)F)cc3)c2=O)cc1C
66 | 217 to 219 °C | C=C1CC(Cn2cc(C)c(=O)[nH]c2=O)(c2ccc(-c3ccccc3)cc2)OC1=O (centres undefined)
67 | 162 °C | CC(C)(C)OC(=O)N1C[C@@H]2SCCC(c3ccccc3)(c3ccccc3)[C@@H]2C1 (racemic)
68 | 93 to 96 °C | COc1ccc2c(c1)CCN(CCc1ccc(NC=O)cc1)C2C (centres undefined)
69 | 194 °C | O=C(O)/C=C/c1ccc(OS(=O)(=O)C(F)(F)F)cc1
70 | 144 to 145 °C | CC(C)(C)OC(=O)N1CCC(Cc2c[nH]c3ccc(F)cc23)CC1
71 | 243 to 251 °C | CNCCC1CN(c2c(F)cc3c(=O)c(C(=O)O)cn(C4CC4)c3c2F)CCO1 (centres undefined)
72 | 124 °C | CCOC(=O)C1=C(C)NN=C(CC)C1c1cccc([N+](=O)[O-])c1 (centres undefined)

Row | melting point | Compound
73 | 129 °C | CCSc1nc(O)ns1
74 | 186 to 188 °C | Nc1ccc2ccc(O)cc2c1
75 | 231 to 233 °C | CC1=NN(C)C(=O)C1C(=O)Nc1ccccc1 (centres undefined)
76 | 164 to 166 °C | NC(=O)N(O)CCNC(=O)c1cccc(Oc2cc(Cl)cc(Cl)c2)c1
77 | 100 to 104 °C | Cc1cccc(O[C@@H]2CN(Cc3ccccc3)C[C@H]2O)c1C (relative stereo)
78 | 85 to 88 °C | Cc1c(C(=O)c2ccc(F)cc2)c(C)n(C)c1C(=O)c1cccnc1
79 | 97 to 98 °C | CCCc1c(OCCCC(=O)NCCCc2cccnc2)ccc(C(C)=O)c1O
80 | 270 to 272 °C | N#Cc1cnc2cc(O)c(O)cc2c1Nc1ccc(Cl)cc1F
81 | 235 to 237 °C | COC1=C(C(=O)c2ccc(OC)cc2)C(c2ccc(C(C)(C)C)cc2)N(c2nnc(C)s2)C1=O (centres undefined)
82 | 188 to 190 °C | CN1C(=O)C(Cc2ccccc2)(c2ccccc2O)c2ccccc21 (centres undefined)
83 | 113 to 115 °C | COc1ccc(-c2cc3cc(OC)cc(CC(F)(F)F)c3o2)cc1
84 | > 240 °C | O=C(Nc1ccc(-n2nc(C(F)(F)F)cc2C(F)(F)F)cc1)c1ccc[nH]1
85 | 183 to 184 °C | Cc1ccc(-c2cnc(N)c([N+](=O)[O-])c2)cc1
86 | > 300 °C | Cc1[nH]c(=O)c(C#N)cc1-c1ccc2nccn2c1
87 | 180 °C | OC1CSC(Oc2ccc(-c3cccnc3)nc2Cl)C(O)C1O (centres undefined)
88 | 292 to 295 °C | COC(=O)c1ccc(C=C2CCn3c2nc2cc(N)ccc2c3=O)cc1
89 | 89 to 90 °C | CCOC(=O)c1cc2c(Cl)ccc3c2n1CCCC=C3
90 | 90 to 91 °C | Cc1c2c(c(C)c3c1NCC3)OC(C)(CI)C2 (centres undefined)
91 | 164 to 166 °C | Cc1nc2nc(SCc3ccccc3)nn2c(C)c1Cl
92 | 215 to 220 °C | O=C(O)c1cc2cc(-c3ccsc3)ccc2o1
93 | 156 to 157 °C | CC(=O)Nc1ccc(Br)c(C)n1
94 | 109 to 110 °C | O=C(O)CCCCCCCCCCCCCCC(=O)ON1C(=O)c2ccccc2C1=O
95 | 220 °C | CC1(C)CCC(C)(C)c2cc(-c3cc(-c4ccc(C(N)=O)cc4)ccc3-c3ccccc3)ccc21

Row | Compound | melting point
96 | OC[C@H]1C[C@H]2CN(c3ncc(F)cn3)CCN2C1 | 123 to 124 °C
97 | COc1ccc2c(c1)C13CCCOC1(C)C(C2)N(C(=O)C1CCC1)CC3 (centres undefined) | 166 to 167 °C
98 | O=C(O)c1nnn(Cc2ccccc2)n1 | 127 to 130 °C
99 | COC(=O)[C@@]12CN(Cc3ccccc3)C[C@@H]1[C@@](O)(c1ccc(OC)cc1)CC[C@H]2c1ccccc1 (racemic) | 136 °C
